Experimental data: patent publication US8901314B2, “Substituted pyrazoles as N-type calcium channel blockers” (Janssen Pharmaceutica NV, priority 2012, dated 2014)

Experiments:
[1] = tested on: Cav2.2 (N-type calcium channel; α1B, α2δ and β3 subunits stably expressed in HEK293 cells); assay: Automated electrophysiology assay (QPatch-HT patch clamp); assay type: cell-based; settings: 0.1 μM; for QPatch % Inhibition, High Freq: high frequency stimulation (15th pulse of 5 Hz train); for QPatch % Inhibition, Low Freq: low frequency stimulation (1st pulse of train)
Method: The Cav2.2 (α1B) subunit (GenBank accession no. AAO53230; supplied by Lipscombe's laboratory at Brown University) was subcloned into pcDNA3.1, whereas the α2δ (M86621) and β3 (M88751) subunits were subcloned into pBudCE4.1 vectors. Stable cell lines expressing all three subunits were generated according to the following procedure: 1) HEK293 cells were transfected with α2δ−1/β3 expression constructs resulting in a stable cell line expressing α2δ−1 and β3 subunits that were selected under 200 μg/mL of Zeocin; 2) a stable cell line expressing α2δ−1/β3 subunits in high quantity as evidenced in its Western blots was isolated from the colony and purified; 3) this cell line was further transfected with Cav2.2 expression constructs, from which cells were subsequently selected under 400 μg/mL G418 and 200 μg/mL Zeocin; 4) these cells were clonally isolated, expanded and screened by Western blot analysis for expressing all three subunits
Cultures of cells stably expressing Cav2.2 were maintained at 37° C. in low glucose-containing Dulbecco's Modified Eagle medium (low glucose) under a 5% CO2 atmosphere. The medium was supplemented with 10% fetal bovine serum, 2 mM L-glutamine, 100 IU/mL penicillin, […] streptomycin, 400 μg/mL G418 and 200 μg/mL Zeocin.
High-throughput automated patch clamp system experiments were carried out using instruments (QPatch-HT) available from Sophion Biosciences, Inc. North Brunswick, N.J. Cells were grown in T175 flasks to 50%-90% confluence were enzymatically treated with Deatchin (Genlantis, San Diego, Calif., U.S.A.), centrifuged, rinsed and resuspended in 293 SFM II media (Life Technologies, Grand Island, N.Y., U.S.A.) supplemented with 25 mM HEPES (Sigma-Aldrich, St. Louis, Mo., U.S.A.) to a concentration of 2−3×10^6 cells/mL. Cells were added to automated cell preparation station on the QPatch-HT (Sophion Biosciences, North Brunswick, N.J., U.S.A.) and following a 10- to 30-min recovery period with gentle stirring, the assay protocol was initiated. During the automated cell preparation, cells were collected, centrifuged and resuspended in an extracellular (EC) solution containing 132 mM NaCl, 1.8 mM CaCl2, 5.4 mM KCl, 0.8 mM MgCl2, 10 mM glucose, and 10 mM HEPES (pH=7.4), adjusted with sucrose to 315 m0sm. The QPlate was primed with an intracellular solution containing 135 CsCl, 10 mM EGTA, 4 MgATP, 0.3 NaGTP, and 20 mM HEPES (pH=7.2), adjusted to approximately 290 m0sm with deionized water and the EC solution. Cells were added to the prepared QPlate wells by robotic pipettes of the QPatch-HT.
For cells determined to be in stable whole-cell patch clamp, the EC solution was replaced with a barium (Ba)/triethylammonium (TEA) solution containing 140 mM TEA-Cl, 10 mM BaCl2, 0.8 mM MgCl2, 10 mM glucose, and 10 mM HEPES (pH=7.4). High (40 mM) BaCl2 concentrations were made with adjustments of TEA-Cl (90 mM) to maintain the osmolarity. From a resting potential of −80 mV, a train of depolarizing pulses (15 pulses at 5 Hz, +20 mV) was delivered to the cell once every 30 sec for eight trains (4 min total), and the resulting currents were measured during a control period (no compound). This protocol was repeated for each subsequent addition of control buffer with or without compound (three periods total, each with four trains). The current generated in the 1st and 15th pulses of the last train of each period in the presence of each drug concentration was normalized to the current generated during the control period at the respective pulses (representing low- and high frequency stimulation, respectively). Data from both the second and third drug application period were analyzed for each cell. A final addition of Ba/TEA solution containing 60-100 uM CdCl2 was made to block all N-type current and “zero” the currents for each cell. A buffer/compound additions were made using a “spitting” feature of the QPatch-HT, which added three repretitions of 5 μL solution at the beginning of each recording period.

[2] = molecular target: α1B (Cav2.2), β3 and α2δ subunits of the N-type calcium channel (stable HEK cell line) (Rattus norvegicus, UniProt Q02294); assay: Calcium-dye indicator assay (FDSS, KCl depolarization); assay type: cell-based; settings: calcium mobilization response to 50 mM KCl; six-point concentration-response
Method: A stable cell line (HEK parent) co-expressing the α1B (Cav2.2), β3 and α2δ subunits of the N-type calcium channel subunits was used. These cells were routinely grown as monolayers in low glucose-containing Dulbecco's Modified Eagle Medium supplemented with 10% FBS, 2 mM L-glutamine, 100 I.U./mL penicillin, 100 μg/mL streptomycin, 400 μg/mL G418 and 200 μg/mL Zeocin (split ratio=1:5). Cells were maintained in 5% CO2 at 37° C. Compounds of Formula (I) were prepared as 10 mM stocks in DMSO from neat compound, if available. Otherwise, the 5 or 10 mM DMSO stock solutions provided in-house were used.
Calcium mobilization responses to KCl depolarization were evaluated by measuring the intensity of calcium-mediated fluorescent signal in the presence of BD Calcium Assay Dye (BD Biosciences, Franklin Lakes, N.J., U.S.A.), utilizing a Functional Drug Screening System (FDSS) by Hamamatsu Corporation (Bridgewater, N.J., U.S.A.).
Twenty-four hours prior to assay, cells were seeded in clear-base poly-D-lysine coated 384-well plates (BD Biosciences) at a density of 5,000 cells per well in culture medium and grown overnight in 5% CO2 at 37° C. On the day of assay growth media were removed and cells were loaded with BD calcium assay dye (BD Biosciences) for 35 min at 37° C. under 5% CO2 and then for 25 min at room temperature. Utilizing the FDSS, cells were exposed to representative compounds of Formula (I) at varying concentrations and intracellular calcium was measured for 5 min prior to the addition of 50 mM KCl for an additional 3 min of measurement.
Maximal fluorescence intensity (FI) achieved upon addition of 50 mM KCl was exported from the FDSS software and further analyzed using GraphPad Prism 4 (Graph Pad Software Inc., CA, U.S.A.). Data were normalized to the maximum average counts from quadruplicate wells for each condition in the presence of 50 mM KCl and to the minimum average counts in the presence of buffer. Theoretical curves were generated using nonlinear regression curve-fitting analysis of either sigmoidal concentration-response or sigmoidal concentration-response (variable slope), and the IC50 values with the best-fit dose curve determined by GraphPad Prism were reported.

Row | Structure (SMILES) | QPatch % Inhibition, High Freq [1] [%] | QPatch % Inhibition, Low Freq [1] [%] | IC50 [2] [nM]
1 | COc1ccc(-n2nc(C3CCOC(C)(C)C3)cc2-c2ccc(Cl)cc2)c(C)c1 (stereo not drawn) [Compound 75, 5-(4-Chlorophenyl)-3-(2,2-dimethyltetrahydro-2H-pyran-4-yl)-1-(4-methoxy-2-methylphenyl)-1H-pyrazole] | 67 | 45 | 80
2 | COc1ccccc1-n1nc(C2CC(C)(C)OC(C)(C)C2)cc1-c1ccc(Cl)s1 [Compound 14, 5-(5-Chlorothiophen-2-yl)-1-(2-methoxyphenyl)-3-(2,2,6,6-tetramethyltetrahydro-2H-pyran-4-yl)-1H-pyrazole] | 74.5 | 63 | 6.2
3 | COc1ccccc1-n1nc(C2CC(C)(C)OC(C)(C)C2)cc1-c1ccc(C)o1 [Compound 28, 1-(2-Methoxyphenyl)-5-(5-methylfuran-2-yl)-3-(2,2,6,6-tetramethyltetrahydro-2H-pyran-4-yl)-1H-pyrazole] | −5 | −18 | 17
4 | COc1ccc(-c2cc(C3CC(C)(C)OC(C)(C)C3)nn2-c2ccccc2OC)cn1 [Compound 13, 2-Methoxy-5-[1-(2-methoxyphenyl)-3-(2,2,6,6-tetramethyltetrahydro-2H-pyran-4-yl)-1H-pyrazol-5-yl]pyridine] | 47.5 | 32 | 4.9
5 | COc1ccccc1-n1nc(C2CC(C)(C)OC2(C)C)cc1-c1ccc(Cl)cc1 (stereo not drawn) [Compound 98, 5-(4-Chlorophenyl)-1-(2-methoxyphenyl)-3-(2,2,5,5-tetramethyltetrahydrofuran-3-yl)-1H-pyrazole] | 61 | 44.5 | 5.1
6 | CCOc1ccc(-c2cc(C3CC(C)(C)OC(C)(C)C3)nn2-c2ccccc2OC)cc1 [Compound 9, 5-(4-Ethoxyphenyl)-1-(2-methoxyphenyl)-3-(2,2,6,6-tetramethyltetrahydro-2H-pyran-4-yl)-1H-pyrazole] | 47.5 | 34 | 2.3
7 | COc1ccccc1-n1nc(C2CC(C)(C)OC(C)(C)C2)cc1-c1ccc(SC)cc1 [Compound 6, 1-(2-Methoxyphenyl)-5-[4-(methylsulfanyl)phenyl]-3-(2,2,6,6-tetramethyltetrahydro-2H-pyran-4-yl)-1H-pyrazole] | 48 | 48 | 1.1
8 | CNc1ccccc1-n1nc(C2CC(C)(C)OC(C)(C)C2)cc1-c1ccc(Cl)cc1 [Compound 60, 2-[5-(4-Chlorophenyl)-3-(2,2,6,6-tetramethyltetrahydro-2H-pyran-4-yl)-1H-pyrazol-1-yl]-N-methylaniline] | 48 | 31 | 7
9 | CCNc1ccccc1-n1nc(C2CC(C)(C)OC(C)(C)C2)cc1-c1ccc(Cl)cc1 [Compound 66, 2-[5-(4-Chlorophenyl)-3-(2,2,6,6-tetramethyltetrahydro-2H-pyran-4-yl)-1H-pyrazol-1-yl]-N-ethylaniline] | 25 | 7 | 9.4
10 | COc1ccccc1-n1nc(C2CC(C)(C)OC(C)(C)C2)cc1-c1cccs1 [Compound 26, 1-(2-Methoxyphenyl)-3-(2,2,6,6-tetramethyltetrahydro-2H-pyran-4-yl)-5-thiophen-2-yl-1H-pyrazole] | 42 | 24 | 12
11 | COc1ccccc1-n1nc(C2CCOC(C)(C)C2)cc1-c1ccc(Cl)cc1 (stereo not drawn) [Compound 62, 5-(4-Chlorophenyl)-3-(2,2-dimethyltetrahydro-2H-pyran-4-yl)-1-(2-methoxyphenyl)-1H-pyrazole] | 67 | 45 | 2
12 | COc1ccccc1-n1nc(C2CC(C)(C)OC(C)(C)C2)cc1C1=CCC(C)(C)CC1 [Compound 8, 5-(4,4-Dimethylcyclohex-1-en-1-yl)-1-(2-methoxyphenyl)-3-(2,2,6,6-tetramethyltetrahydro-2H-pyran-4-yl)-1H-pyrazole] | 40 | 37 | 1.6
13 | CN(C)c1ccccc1-n1nc(C2CC(C)(C)OC(C)(C)C2)cc1-c1ccc(Cl)cc1 [Compound 49, 2-[5-(4-Chlorophenyl)-3-(2,2,6,6-tetramethyltetrahydro-2H-pyran-4-yl)-1H-pyrazol-1-yl]-N,N-dimethylaniline] | 47 | 33 | 5.5
14 | COc1ccccc1-n1nc(C2CC(C)(C)OC(C)(C)C2)cc1-c1ccc(Cl)cc1F [Compound 3, 5-(4-Chloro-2-fluorophenyl)-1-(2-methoxyphenyl)-3-(2,2,6,6-tetramethyltetrahydro-2H-pyran-4-yl)-1H-pyrazole] | 42 | 34 | 1
15 | COc1ccccc1-n1nc(C2C[C@@H](C)O[C@H](C)C2)cc1-c1ccc(Cl)cc1 (relative stereo) [Compound 61, 5-(4-Chlorophenyl)-3-[(trans)-2,6-dimethyltetrahydro-2H-pyran-4-yl]-1-(2-methoxyphenyl)-1H-pyrazole] | 62 | 30 | 1.5
16 | COc1ccccc1-n1nc(C2CC(C)(C)OC(C)(C)C2)cc1-c1ccc(C(C)O)cc1 (stereo not drawn) [Compound 44, 1-{4-[1-(2-Methoxyphenyl)-3-(2,2,6,6-tetramethyltetrahydro-2H-pyran-4-yl)-1H-pyrazol-5-yl]-phenyl}-ethanol] | 6 | 20 | 19
